Where two headings read alike, the source gives them in different places.
System: HBV rcDNA
Assay: Dual agent combination in HepDE19 cells, rcDNA by Quantigene 2.0 bDNA assay (Examples 5-8)
Format: cell-based, HBV; HepDE19 (HepG2 human hepatocarcinoma derived)
Conditions: Hepatitis B virus; for inhibition at 0.005 µM: Compound 1 0.005 μM alone; for inhibition at 0.01 µM: Compound 1 0.010 μM alone; for inhibition at 0.02 µM: Compound 1 0.020 μM alone; for inhibition at 0.039 µM: Compound 1 0.039 μM alone; for inhibition at 0.156 µM: Compound 1 0.156 μM alone
Experimental: In vitro dual agent combination studies were conducted using the method of Prichard and Shipman 1990 (Prichard M N, Shipman C, Jr. 1990. Antiviral Res 14:181-205). The HepDE19 cell culture system is a HepG2 (human hepatocarcinoma) derived cell line that supports HBV DNA replication and cccDNA formation under control the control of a CMV Tet-off promoter system (Guo et al. 2007. J Virol 81:12472-84). HepDE19 (50,000 cells/well) were plated in 96 well collagen-coated tissue-culture treated microtiter plates in DMEM/F12 medium supplemented with 10% fetal bovine serum+1% penicillin-streptomycin with tetracycline (1 μg/mL) and incubated in a humidified incubator at 37° C. and 5% CO2 overnight. Next day, the cells were switched to fresh medium without tetracycline and incubated for 4 hrs at 37° C. and 5% CO2. The cells were switched to fresh medium and treated with inhibitor A and inhibitor B, at concentration range spanning their respective EC50 values. […] The two inhibitors were tested both singly as well as in combinations in a checkerboard fashion such that each concentration of inhibitor A was combined with each concentration of inhibitor B to determine their combination effects on inhibition of rcDNA production. There were four replicates of each concentration combination in each experiment. The plates were incubated for 7 days in a humidified incubator at 37° C. and 5% CO2. The level of rcDNA present in the wells was measured using a Quantigene 2.0 bDNA assay kit (Affymetrix, Santa Clara, Calif.) with HBV specific custom probe set (genotype D ayw) and according to the manufacturer's instructions and read using a luminescence plate reader and the relative luminescence units (RLU) data generated from each well was calculated as % inhibition of the untreated control wells and analyzed using the MacSynergy II program to determine whether the combinations were synergistic, additive or antagonistic using the interpretive guidelines established by Prichard and Shipman (Prichard M N, Shipman C, Jr. 1990. […] Each experiment was repeated at least three times and the averages and standard deviations of individual determinations was calculated to derive the conclusion. Concurrently, in each experiment, the effect of inhibitor combinations on cell viability was assessed using replicate plates in triplicates that were used to determine the ATP content as a measure of cell viability using the Cell-Titer Glo reagent (Promega, Madison, Wis.) as per the manufacturer's instructions.

[1] = HepDE19, Expt 2, read-out: AVERAGE % INHIBITION
[2] = HepDE19, Expt 3 (with ETV), read-out: ADDITIVE INHIBITION
[3] = HepDE19, Expt 3 (with ETV), read-out: AVERAGE % INHIBITION
[4] = HepDE19, Expt 3 (with TDF), read-out: ADDITIVE INHIBITION
[5] = HepDE19, Expt 3 (with TDF), read-out: AVERAGE % INHIBITION

Cn1cnc(COC(=O)N[C@H]2CCc3c(C(=O)Nc4ccc(F)c(Cl)c4)ccc(F)c32)n1 [Compound 1]
inhibition at 0.005 µM [1]: 7.51%
inhibition at 0.01 µM [1]: 26.3%
inhibition at 0.02 µM [1]: 40.8%
inhibition at 0.039 µM [1]: 39.8%
inhibition at 0.156 µM [1]: 87.4%
inhibition at 1.25 µM (HepDE19, Expt 2, Compound 1 1.250 μM alone, read-out: AVERAGE % INHIBITION): 98.4%
inhibition at 0.005 µM [2]: -5.5%
inhibition at 0.005 µM [3]: -5.5%
inhibition at 0.01 µM [2]: 6.89%
inhibition at 0.01 µM [3]: 6.89%
inhibition at 0.02 µM [2]: 14.2%
inhibition at 0.02 µM [3]: 14.2%
inhibition at 0.039 µM [2]: 43.7%
inhibition at 0.039 µM [3]: 43.7%
inhibition at 0.156 µM [2]: 80.6%
inhibition at 0.156 µM [3]: 80.6%
inhibition at 1.25 µM (HepDE19, Expt 3 (with ETV), Compound 1 1.25 μM alone, read-out: ADDITIVE INHIBITION): 98.1%
inhibition at 1.25 µM (HepDE19, Expt 3 (with ETV), Compound 1 1.25 μM alone, read-out: AVERAGE % INHIBITION): 98.1%
inhibition at 0.005 µM [4]: 18.8%
inhibition at 0.005 µM [5]: 18.8%
inhibition at 0.01 µM [4]: 27.3%
inhibition at 0.01 µM [5]: 27.3%
inhibition at 0.02 µM [4]: 44.5%
inhibition at 0.02 µM [5]: 44.5%
inhibition at 0.039 µM [4]: 66.8%
inhibition at 0.039 µM [5]: 66.8%
inhibition at 0.156 µM [4]: 83.6%
inhibition at 0.156 µM [5]: 83.6%
inhibition at 1.25 µM (HepDE19, Expt 3 (with TDF), Compound 1 1.250 μM alone, read-out: ADDITIVE INHIBITION): 98.8%
inhibition at 1.25 µM (HepDE19, Expt 3 (with TDF), Compound 1 1.250 μM alone, read-out: AVERAGE % INHIBITION): 98.8%
inhibition at 0.007 µM (HepDE19, Expt 3, Cmpd 1 0.007 μM alone, read-out: AVERAGE % INHIBITION): 6.78%
inhibition at 0.067 µM (HepDE19, Expt 3, Cmpd 1 0.067 μM alone): 64.7%
inhibition at 0.2 µM (HepDE19, Expt 3, Cmpd 1 0.200 μM alone): 92.7%
inhibition at 0.6 µM (HepDE19, Expt 3, Cmpd 1 0.600 μM alone): 97.4%
inhibition at 0.007 µM (HepDE19, Expt 3, Compound 1 0.007 μM alone, read-out: AVERAGE % INHIBITION): -51.7%
inhibition at 0.067 µM (HepDE19, Expt 3, Compound 1 0.067 μM alone): 51.8%
inhibition at 0.2 µM (HepDE19, Expt 3, Compound 1 0.200 μM alone): 85.5%
inhibition at 0.6 µM (HepDE19, Expt 3, Compound 1 0.600 μM alone): 94.6%
inhibition at 0.007 µM (HepDE19, Expt 4, Compound 1 0.007 μM alone, read-out: AVERAGE % INHIBITION): 11.7%
inhibition at 0.067 µM (HepDE19, Expt 4, Compound 1 0.067 μM alone): 52.8%
inhibition at 0.2 µM (HepDE19, Expt 4, Compound 1 0.200 μM alone): 90%
inhibition at 0.6 µM (HepDE19, Expt 4, Compound 1 0.600 μM alone): 96.4%
